Measured values published in EP1149076B1, “O-THIOCARBAMOYL-AMINOALKANOL COMPOUNDS, THEIR PHARMACEUTICALLY ACCEPTABLE SALTS AND PROCESS FOR PREPARING THE SAME” (SK Corporation, priority 1999, dated 2000).

Legend:
mice (CD-1 strain) [1] = assay: Maximal ElectroShock (MES) test; type: in vivo; details: for ED50: Mus musculus
mice (CD-1 strain) [2] = assay: Forced Swimming Test; type: in vivo; details: duration of immobility, one hour prior to test, 15-minute test period
Experimental: The therapeutic use of the compounds claimed in the present invention as antidepressants has been proven by the "Forced Swimming Test", a well known pharmacological screening methods for depression and the results are shown in the following Table II.
The procedure described by Porsolt et al., (1997) was used. Test compound was administered p.o. and i.p. to mice (CD-1 strain), one hour prior to the animals being immersed in a 1500mL glass beaker (16.5cm deep, 13.0cm diameter) filled with water (20 ∼ 23°C) to about 5cm from the top. Mice were kept in the water for a period of 15 minutes and the duration of immobility observed within the 15-minute test period was recorded. A mouse was judged to be immobile if it floated motionlessly in the water making only those movements necessary to keep its head above the water.

SMILES	Inhibition (reduction,%) (mice (CD-1 strain) [2]; i.p. (30mg/kg)) [%]	Inhibition (reduction,%) (mice (CD-1 strain) [2]; p.o. (30mg/kg)) [%]	also measured
CNC(=S)OCC(N)Cc1ccccc1F (racemic)	–	–	ED50 (mice (CD-1 strain) [1]; ip, 1h): 24.7 mg/kg
NC(=S)OCC(N)Cc1ccc(Cl)cc1 (racemic)	30.6	38.1	–
CNC(=S)OCC(CN)c1ccccc1 (stereo not drawn)	30.5	25.6	–
CN(C)C(=S)OC[C@H](N)Cc1ccc(Cl)c(Cl)c1 [[drawing] the 2nd table, row 12]	54.9	50.8	–
CNC(=S)OC[C@@H](N)Cc1ccccc1	–	–	ED50 (mice (CD-1 strain) [1]; ip, 0.5h): 41.8 mg/kg; ED50 (mice (CD-1 strain) [1]; po, 0.5h): 152 mg/kg
NC(=S)OC[C@H](N)Cc1ccccc1 [[drawing] the 2nd table, row 2]	41.6	–	–
NC(=S)OC[C@H](N)Cc1ccccc1 [[drawing] the 3rd table, row 2]	–	–	ED50 (mice (CD-1 strain) [1]; ip, 0.5h): 29 mg/kg; ED50 (mice (CD-1 strain) [1]; po, 0.5h): 189 mg/kg
NC(=S)OC[C@@H](N)Cc1ccccc1	51.2	–	–
CNC(=S)OCCC(N)c1ccccc1 (stereo not drawn)	44.2	29.2	–
CN(C)C(=S)OC[C@H](N)Cc1ccc(Cl)c(Cl)c1 [[drawing] the 3rd table, row 7]	–	–	MES (ip, 30mg/kg) (mice (CD-1 strain) [1]; ip, 30mg/kg, 4.0h, mice protected / mice tested): 1/3 (4.0h)
CNC(=S)OC[C@H](N)Cc1ccccc1	–	–	ED50 (mice (CD-1 strain) [1]; ip, 1h): 20.9 mg/kg; MES (po, 30mg/kg) (mice (CD-1 strain) [1]; po, 30mg/kg, 0.5h, mice protected / mice tested): 3/3 (0.5h)
